According to publication PMC3433420 (PLoS ONE, 2012):
Like-named read-outs stand apart in the source and are kept apart here. Residues, ends and D or L forms follow the SMILES beside them.

Legend:
SH2 and PTB domains = conditions: original PM interactions, ref Jones et al. 2006 / Kaushansky et al. Chem and Biol 2008, cited from earlier work
Description: Supplement pone.0044471.s022.xlsx, sheet "Most recent PM interactions" | column: Kd || Supplement pone.0044471.s022.xlsx, sheet "All original PM interactions" | column: Kd

BLNK SH2 domain = BLNK SH2 domain (Homo sapiens, UniProt Q8WV28); assay: FP saturation binding assay
Chain of BLNK SH2 domain (Q8WV28 346-453 limits assumed): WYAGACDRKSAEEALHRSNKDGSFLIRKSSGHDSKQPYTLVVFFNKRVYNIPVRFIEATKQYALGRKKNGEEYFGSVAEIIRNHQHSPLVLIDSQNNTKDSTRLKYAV

LCP2 SH2 domain = LCP2 SH2 domain (Homo sapiens, UniProt Q13094); assay: FP saturation binding assay
Chain of LCP2 SH2 domain (Q13094 422-530 limits assumed): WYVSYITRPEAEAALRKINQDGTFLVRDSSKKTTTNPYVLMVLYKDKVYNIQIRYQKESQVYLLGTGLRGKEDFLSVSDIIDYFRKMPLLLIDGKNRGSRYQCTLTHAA

In the case of “DNLYpYWDQDPPEd [ErbB2 pY1222, N-terminally rhodamine-labeled 13-mer phosphopeptide]”, the Kd (SH2 and PTB domains; Protein ABL1) is listed as 1840 nM, the Kd (SH2 and PTB domains; Protein ABL2) is listed as 190 nM and the Kd (SH2 and PTB domains; Protein BCAR3) is listed as 2000 nM. The Kd (SH2 and PTB domains; Protein BLK) was 2000 nM, the Kd (SH2 and PTB domains; Protein BMX) was 2000 nM and the Kd (SH2 and PTB domains; Protein BTK) was 2000 nM. The Kd (SH2 and PTB domains; Protein CRKL) was 1460 nM, the Kd (SH2 and PTB domains; Protein DAPP1) was 2000 nM and the Kd (SH2 and PTB domains; Protein FGR) was 2000 nM. The Kd (SH2 and PTB domains; Protein GRB10) was 490 nM, the Kd (SH2 and PTB domains; Protein HSH2D) was 2000 nM and the Kd (SH2 and PTB domains; Protein ITK) was 2000 nM. The Kd (SH2 and PTB domains; Protein NCK1) was 2000 nM, the Kd (SH2 and PTB domains; Protein PIK3R1-C) was 2000 nM and the Kd (SH2 and PTB domains; Protein PIK3R1-NC) was 1840 nM. For the same compound, the Kd (SH2 and PTB domains; Protein PIK3R2-NC) was 2000 nM, the Kd (SH2 and PTB domains; Protein PIK3R3-C) was 2000 nM and the Kd (SH2 and PTB domains; Protein PIK3R3-NC) was 780 nM. For the same compound, the Kd (SH2 and PTB domains; Protein PLCG1-N) was 2000 nM, the Kd (SH2 and PTB domains; Protein PLCG1-NC) was 1790 nM and the Kd (SH2 and PTB domains; Protein PLCG2-N) was 2000 nM. The Kd (SH2 and PTB domains; Protein PLCG2-NC) was 2000 nM, the Kd (SH2 and PTB domains; Protein PTPN6-C) was 2000 nM and the Kd (SH2 and PTB domains; Protein PTPN11-N) was 2000 nM. For the same compound, the Kd (SH2 and PTB domains; Protein RASA1-C) was 2000 nM, the Kd (SH2 and PTB domains; Protein RASA1-N) was 500 nM and the Kd (SH2 and PTB domains; Protein RASA1-NC) was 2000 nM. The Kd (SH2 and PTB domains; Protein SH2B2) was 1470 nM, the Kd (SH2 and PTB domains; Protein SH2B3) was 2000 nM and the Kd (SH2 and PTB domains; Protein SH2D1A) was 2000 nM. The Kd (SH2 and PTB domains; Protein SH2D1B) was 2000 nM, the Kd (SH2 and PTB domains; Protein SH2D3A) was 1600 nM and the Kd (SH2 and PTB domains; Protein SH2D3C) was 710 nM. For the same compound, the Kd (SH2 and PTB domains; Protein SHC1-PTB) was 90 nM, the Kd (SH2 and PTB domains; Protein SHC1) was 2000 nM and the Kd (SH2 and PTB domains; Protein SHC2-PTB) was 460 nM. The Kd (SH2 and PTB domains; Protein SHC3) was 1710 nM, the Kd (SH2 and PTB domains; Protein SHC4) was 2000 nM and the Kd (SH2 and PTB domains; Protein SHD) was 2000 nM. For the same compound, the Kd (SH2 and PTB domains; Protein SHF) was 2000 nM, the Kd (SH2 and PTB domains; Protein SLA2) was 2000 nM and the Kd (SH2 and PTB domains; Protein SLA) was 2000 nM. For the same compound, the Kd (SH2 and PTB domains; Protein SOCS1) was 1920 nM, the Kd (SH2 and PTB domains; Protein SOCS2) was 2000 nM and the Kd (SH2 and PTB domains; Protein SOCS3) was 2000 nM. The Kd (SH2 and PTB domains; Protein SOCS5) was 2000 nM, the Kd (SH2 and PTB domains; Protein SOCS6) was 2000 nM and the Kd (SH2 and PTB domains; Protein SRC) was 2000 nM. The Kd (SH2 and PTB domains; Protein SUPT6H) was 2000 nM, the Kd (SH2 and PTB domains; Protein SYK-C) was 1970 nM and the Kd (SH2 and PTB domains; Protein SYK-N) was 200 nM. For the same compound, the Kd (SH2 and PTB domains; Protein SYK-NC) was 460 nM, the Kd (SH2 and PTB domains; Protein TEC) was 1610 nM and the Kd (SH2 and PTB domains; Protein TENC1) was 840 nM. For the same compound, the Kd (SH2 and PTB domains; Protein TNS1) was 2000 nM, the Kd (SH2 and PTB domains; Protein TNS3) was 1290 nM and the Kd (SH2 and PTB domains; Protein TXK) was 2000 nM. The Kd (SH2 and PTB domains; Protein VAV1) was 2000 nM, the Kd (SH2 and PTB domains; Protein VAV2) was 2000 nM and the Kd (SH2 and PTB domains; Protein VAV3) was 2000 nM. The Kd (SH2 and PTB domains; Protein YES1) was 2000 nM.
In the case of `CSCC[C@H](NC(=O)[C@H](Cc1ccc(OP(=O)(O)O)cc1)NC(=O)[C@H](CCC(=O)O)NC(=O)[C@H](Cc1ccc(O)cc1)NC(=O)CNC(=O)[C@@H](N)CC(C)C)C(=O)N[C@@H](CC(=O)O)C(=O)N[C@H](C(=O)NCC(=O)N[C@@H](CO)C(=O)N[C@@H](CC(=O)O)C(=O)N[C@@H](CC(C)C)C(=O)N[C@@H](CC(=O)O)C(=O)O)C(C)C` [ErbB3 1224 13-mer] (HELM PEPTIDE1{L.G.Y.E.[O=C([C@H](Cc1ccc(OP(=O)(O)O)cc1)N[*:1])[*:2]].M.D.V.G.S.D.L.D}$$$$V2.0), the Kd (BLNK SH2 domain) is reported as 3630 nM.
`CC(C)C[C@H](NC(=O)[C@H](CC(N)=O)NC(=O)[C@@H](N)CC(=O)O)C(=O)N[C@@H](Cc1ccc(O)cc1)C(=O)N[C@@H](Cc1ccc(OP(=O)(O)O)cc1)C(=O)N[C@@H](Cc1c[nH]c2ccccc12)C(=O)N[C@@H](CC(=O)O)C(=O)N[C@@H](CCC(N)=O)C(=O)N[C@@H](CC(=O)O)C(=O)N1CCC[C@H]1C(=O)N1CCC[C@H]1C(=O)N[C@@H](CCC(=O)O)C(=O)N[C@@H](CC(=O)O)C(=O)O` [ErbB2 1222 13-mer] (HELM PEPTIDE1{D.N.L.Y.[O=C([C@H](Cc1ccc(OP(=O)(O)O)cc1)N[*:1])[*:2]].W.D.Q.D.P.P.E.D}$$$$V2.0) gave a Kd (LCP2 SH2 domain) of 11700 nM.
